Results on six compounds are retold here after EP0056144A1, “Carboxylic acid derivatives, their preparation and use as pharmaceuticals” (Dr. Karl Thomae GmbH, priority 1981, dated 1982).

One data set has as its system weiblichen Ratten. Briefly: Blood-sugar-lowering effect in fasted female rats (glucose by hexokinase method). Type of data set: in vivo. Further details: key: n.s.: statistisch nicht signifikant. As to conditions: rats fasted 24 h. The source says:
Die blutzuckersenkende Wirkung der zu untersuchenden Substanzen wurde an weiblichen Ratten eigener Zucht mit dem Gewicht von 180-220 g geprüft, welche 24 Stunden vor Versuchsbeginn nüchtern gesetzt wurden. Die zu untersuchenden Substanzen wurden unmittelbar vor Versuchsbeginn in 1,5%- iger Methylcellulose suspendiert und per Schlundsonde appliziert.
Die Blutentnahme erfolgte unmittelbar vor Substanzapplikation, sowie 1, 2, 3 und 4 Stunden danach jeweils aus dem retroorbitalen Venenplexus. Hiervon wurden jeweils 50 Fl mit 0,5 ml 0,33 N Perchlorsäure enteiweißt und zentrifugiert. Im überstand wurde Glukose nach der Hexokinase-Methode mit Hilfe eines Analysenphotometers bestimmt. Die statistische Auswertung erfolgte nach dem t-Test nach Student mit p = 0,05 als Signifikanzgrenze.
Die nachfolgende Tabelle enthält die gefundenen Werte in Prozent gegenüber Kontrolle: […]

In data set [1] the test system is weiblichen und männlichen Mäusen. Briefly: Acute toxicity in mice after a single oral dose. Type of data set: in vivo. Conditions: observation at least 7 days; for Tieren gestorben: single oral dose of 1 000 mg/kg; for orientierende Toxizität: single oral dose. The source says:
Bei weiblichen und männlichen Mäusen eigener Zucht mit dem Gewicht von 20-26 g wurde die toxische Wirkung der Substanzen nach oraler Gabe (Suspension in 1%iger Methylcellulose) einer einmaligen Dosis bei einer Nachbeobachtungszeit von mindestens 7 Tagen geprüft. Die nachfolgende Tabelle enthält die gefundenen Werte: […]

Setting [2] is: 5 mg/kg by gavage, 1 hour after administration.
Setting [3] is: 5 mg/kg by gavage, 2 hours after administration.
[4] abbreviates: 5 mg/kg by gavage, 3 hours after administration.
[5] abbreviates: 5 mg/kg by gavage, 4 hours after administration.

In the case of `O=C(O)c1ccc(CCNC(=O)c2cc(F)ccc2N2CCCCCCCC2)cc1` [Substanz B, 4-[2-[5-Fluor-2-(octahydro-1H-azonino)-benzoylamino]äthyl]-benzoesäure], the “Blutzuckersenkende Wirkung, Werte in Prozent gegenüber Kontrolle” value (“Blutzuckersenkende Wirkung, Werte” below) in the data set on weiblichen Ratten (setting [2]) was -31 Prozent; in the data set with weiblichen Ratten (setting [3]), -36 Prozent; in the data set on weiblichen Ratten (setting [4]) it was -34 Prozent; in the data set with weiblichen Ratten (setting [5]), -34 Prozent.
For `Cc1ccc(N2CCCCCCCC2)c(C(=O)NCCc2ccc(C(=O)O)cc2)c1` [Substanz D, 4-[2-[5-Methyl-2-(octahydro-1H-azonino)-benzoylamino]-äthyl]-benzoesäure], the “Blutzuckersenkende Wirkung, Werte” value in the data set with weiblichen Ratten (setting [2]) is -30 Prozent; in the data set with weiblichen Ratten (setting [3]), -34 Prozent; in the data set with weiblichen Ratten (setting [4]), -35 Prozent; in the data set with weiblichen Ratten (setting [5]), -26 Prozent.
With `C[C@@H]1C[C@H](C)CN(c2ncc(Cl)cc2C(=O)NCCc2ccc(C(=O)O)cc2)C1` [Substanz C], the Tieren gestorben in data set [1] is given as 0 von 10. Besides, the “orientierende Toxizität” value in data set [1] is > 1 000 mg/kg. The “Blutzuckersenkende Wirkung, Werte” value in the data set with weiblichen Ratten (setting [2]) is -37 Prozent; in the data set with weiblichen Ratten (setting [3]), -39 Prozent; with weiblichen Ratten (setting [4]), -40 Prozent; in the data set with weiblichen Ratten (setting [5]) it was -38 Prozent.
As for `CCNc1ccc(Cl)cc1C(=O)NCCc1ccc(C(=O)O)cc1` [Substanz E, 4-[2-(2-Äthylamino-5-chlor-benzoylamino)-äthyl]benzoesäure, reference compound], the “Blutzuckersenkende Wirkung, Werte” value in the data set on weiblichen Ratten (25 mg/kg by gavage, 1 hour after administration) was “n.s”; in the data set on weiblichen Ratten (25 mg/kg by gavage, 2 hours after administration), “n.s”; in the data set on weiblichen Ratten (25 mg/kg by gavage, 3 hours after administration) it was “n.s”; in the data set with weiblichen Ratten (25 mg/kg by gavage, 4 hours after administration), “n.s”.
On to `O=C(O)c1ccc(CCNC(=O)c2cc(Cl)ccc2N2CCC3CCCC2C3)cc1` (stereo not drawn) [Substanz A, 4-[2-[2-(2-Azabicyclo[3.3.1]nonan-2-yl)-5-chlor-benzoyl-amino]-äthyl]benzoesäure], for which the “Blutzuckersenkende Wirkung, Werte” value is reported as -42 Prozent in the data set with weiblichen Ratten (setting [2]), -43 Prozent in the data set on weiblichen Ratten (setting [3]), -36 Prozent with weiblichen Ratten (setting [4]) and -32 Prozent with weiblichen Ratten (setting [5]).
For `CCC(CC)C1CCN(c2ccc(Cl)cc2C(=O)O)CC1` [Substanz F, 5-Chlor-2-[4-(3-pentyl)-piperidino]benzoesäure], in data set [1], the Tieren gestorben was 0 von 10 and the “orientierende Toxizität” value is recorded as > 1 000 mg/kg.
